Reference: patent publication US20050197338A1, “Substituted pyrazole urea compounds for the treatment of inflammation” (priority 2003, published 2005)
Where a name gives a salt, the structure may show the parent alone.

Target: T1, human IKK-2 (rhIKK-2 homodimer) (Homo sapiens, UniProt O14920)
T1 construct: FLAG (DYKDDDDKD) (C); made in house; host or cells: insect cells (baculovirus, pFastBac)
T1 sequence (O14920 1-756): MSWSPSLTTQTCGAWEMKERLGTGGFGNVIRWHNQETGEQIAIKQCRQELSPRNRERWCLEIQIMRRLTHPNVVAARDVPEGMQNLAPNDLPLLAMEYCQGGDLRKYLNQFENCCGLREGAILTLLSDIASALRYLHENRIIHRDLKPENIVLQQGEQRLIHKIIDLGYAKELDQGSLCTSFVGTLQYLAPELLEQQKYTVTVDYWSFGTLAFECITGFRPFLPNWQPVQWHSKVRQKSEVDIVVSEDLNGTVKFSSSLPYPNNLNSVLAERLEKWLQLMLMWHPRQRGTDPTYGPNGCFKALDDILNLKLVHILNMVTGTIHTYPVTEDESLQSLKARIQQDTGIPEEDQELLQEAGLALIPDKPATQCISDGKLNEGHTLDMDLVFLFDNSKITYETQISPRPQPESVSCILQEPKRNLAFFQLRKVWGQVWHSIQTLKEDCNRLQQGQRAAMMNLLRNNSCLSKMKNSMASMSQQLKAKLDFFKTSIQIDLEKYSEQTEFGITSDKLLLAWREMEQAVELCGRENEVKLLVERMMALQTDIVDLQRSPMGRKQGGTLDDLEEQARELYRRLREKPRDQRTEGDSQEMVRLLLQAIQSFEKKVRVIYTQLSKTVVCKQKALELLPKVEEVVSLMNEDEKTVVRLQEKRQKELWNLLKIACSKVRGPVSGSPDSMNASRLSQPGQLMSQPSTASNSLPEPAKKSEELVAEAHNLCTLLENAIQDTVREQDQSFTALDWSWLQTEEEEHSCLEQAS
Assay: IKK-2 Resin Enzyme Assay (Human IKK-2 Enzyme Assay)
Assay type: biochemical
Details: human IKK-2, resin enzyme assay; read-out: IC50 (μM) hIKK-2
Procedure, shortened: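 C-terminally FLAG-tagged human IKK-2 homodimer, baculovirus-expressed in insect cells and anti-FLAG purified. Reaction mix: 5 μM biotinylated IκBα peptide (Ser32/Ser36 region), 1 μM ATP with [γ-33P]ATP, 2 mM MgCl2, 2 mM MnCl2, 10 mM NaF, 1 mM DTT, 25 mM HEPES pH 7.6. Incubated 30 min at 25 °C; IC50 derived.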

First: NC(=O)Nc1cn(-c2cccc(-c3ccnc(Cl)c3)c2)nc1C(N)=O [Example 13, 4-[(aminocarbonyl)amino]-1-[3-(2-chloropyridin-4-yl)phenyl]-1H-pyrazole-3-carboxamide]
Second: NC(=O)Nc1cn(-c2cccc(-c3ccsc3)c2)nc1C(N)=O [Example 43, 4-[(aminocarbonyl)amino]-1-(3-thien-3-ylphenyl)-1H-pyrazole-3-carboxamide]
The IC50 of the first is 22-fold lower: 0.38 µM for the first, 8.54 µM for the second. The first is the more potent here.

Compared with `CCc1ccc(-c2cccc(-n3cc(NC(N)=O)c(C(N)=O)n3)c2)cc1` [Example 342, 4-[(aminocarbonyl)amino]-1-(4′-ethyl-1,1′-biphenyl-3-yl)-1H-pyrazole-3-carboxamide], `N#Cc1cccc(-c2ccc(-n3cc(NC(N)=O)c(C(N)=O)n3)cc2)c1` [Example 104, 4-[(aminocarbonyl)amino]-1-(3′-cyano-1,1′-biphenyl-4-yl)-1H-pyrazole-3-carboxamide] is lower in IC50: greater than 20 µM for the first, 0.677 µM for the second.

First: NC(=O)Nc1cn(-c2ccc([S+]([O-])c3ccccc3F)cc2)nc1C(N)=O (stereo not drawn) [Example 193, 1-(1-(4-(2-fluorophenylsulfinyl)phenyl)-3-carbamoyl-1H-pyrazol-4-yl)urea]
Second: NC(=O)Nc1cn(-c2cccc([S+]([O-])c3ccccc3F)c2)nc1C(N)=O (stereo not drawn) [Example 202, 1-(1-(3-(2-fluorophenylsulfinyl)phenyl)-3-carbamoyl-1H-pyrazol-4-yl)urea]
The IC50 of the first is 1.6-fold lower: 3.75 µM for the first, 5.97 µM for the second.

Compared with `COC(=O)c1ccc(-c2ccc(-n3cc(NC(N)=O)c(C(N)=O)n3)cc2)c(N)c1` [Example 29, methyl 2-amino-4′-{3-(aminocarbonyl)-4-[(aminocarbonyl)amino]-1H-pyrazol-1-yl}-1,1′-biphenyl-4-carboxylate], `COc1ccc(Cl)cc1-c1ccc(-n2cc(NC(N)=O)c(C(N)=O)n2)cc1` [Example 129, 4-[(aminocarbonyl)amino]-1-(5′-chloro-2′-methoxy-1,1′-biphenyl-4-yl)-1H-pyrazole-3-carboxamide] is 3.4-fold higher in IC50: 0.53 µM for the first, 1.82 µM for the second.

First: N#CCOc1ccccc1-c1ccc(-n2cc(NC(N)=O)c(C(N)=O)n2)cc1C(F)(F)F [Example 238, 4-[(aminocarbonyl)amino]-1-[2′-(cyanomethoxy)-2-(trifluoromethyl)-1,1′-biphenyl-4-yl]-1H-pyrazole-3-carboxamide]
Second: CCOc1cc(-n2cc(NC(N)=O)c(C(N)=O)n2)ccc1-c1ccccc1O [Example 232, 4-[(aminocarbonyl)amino]-1-(2-ethoxy-2′-hydroxy-1,1′-biphenyl-4-yl)-1H-pyrazole-3-carboxamide]
The IC50 of the first is 9.3-fold lower: 1.11 µM for the first, 10.3 µM for the second.

Compared with `NC(=O)Nc1cn(-c2cccc(Sc3ccccc3F)c2)nc1C(N)=O` [Example 198, 1-(1-(3-(2-fluorophenylthio)phenyl)-3-carbamoyl-1H-pyrazol-4-yl)urea], `NC(=O)Nc1cn(-c2ccc(Sc3cccc(F)c3)cc2)nc1C(N)=O` [Example 197, 1-(1-(4-(3-fluorophenylthio)phenyl)-3-carbamoyl-1H-pyrazol-4-yl)urea] is 12-fold lower in IC50: 6.52 µM for the first, 0.561 µM for the second. The second is the more potent here.

First: CC(C)Cc1ccc(-c2ccc(-n3cc(C(N)=O)c(NC(N)=O)n3)cc2)cc1 [Example 127]
Second: CSc1cccc(-c2ccc(-n3cc(C(N)=O)c(NC(N)=O)n3)cc2)c1 [Example 118]
The IC50 of the first is higher: greater than 20 µM for the first, 3.07 µM for the second. The second is the more potent here.

First: COc1cc(-c2cccc(-n3cc(NC(N)=O)c(C(N)=O)n3)c2)c(Cl)cn1 [Example 14, trifluoroacetate]
Second: Cc1cc(-c2cccc(-n3cc(NC(N)=O)c(C(N)=O)n3)c2)ccc1F [Example 346, 4-[(aminocarbonyl)amino]-1-(4′-fluoro-3′-methyl-1,1′-biphenyl-3-yl)-1H-pyrazole-3-carboxamide]
The IC50 of the first is lower: 8.95 µM for the first, greater than 20 µM for the second. The first is the more potent here.

`CC1(C)OB(c2ccc(-n3cc(NC(N)=O)c(C(N)=O)n3)cc2)OC1(C)C` [Example 260, 4-[(aminocarbonyl)amino]-1-[4-(4,4,5,5-tetramethyl-1,3,2-dioxaborolan-2-yl)phenyl]-1H-pyrazole-3-carboxamide] and `NC(=O)Nc1cn(-c2ccc(-c3ccc[nH]3)cc2)nc1C(N)=O` [Example 26, 4-[(aminocarbonyl)amino]-1-[4-(1H-pyrrol-2-yl)phenyl]-1H-pyrazole-3-carboxamide] are within 1.5-fold of each other in IC50: 0.512 µM for the first, 0.59 µM for the second.

`NC(=O)Nc1cn(-c2ccc(-c3cc(F)ccc3OCC(=O)N3CCOCC3)cc2)nc1C(N)=O` [Example 161, 4-[(aminocarbonyl)amino]-1-[5′-fluoro-2′-(2-morpholin-4-yl-2-oxoethoxy)-1,1′-biphenyl-4-yl]-1H-pyrazole-3-carboxamide] and `NC(=O)Nc1cn(-c2ccc(-c3cccc(OCC(=O)O)c3)cc2)nc1C(N)=O` [Example 258, [(4′-{3-(aminocarbonyl)-4-[(aminocarbonyl)amino]-1H-pyrazol-1-yl}-1,1′-biphenyl-3-yl)oxy]acetic acid] are within 1.5-fold of each other in IC50: 1.36 µM for the first, 1.02 µM for the second.

First: NC(=O)Nc1cn(-c2ccc(-c3ccccc3CO)cc2)nc1C(N)=O [Example 105, 4-[(aminocarbonyl)amino]-1-[2′-(hydroxymethyl)-1,1′-biphenyl-4-yl]-1H-pyrazole-3-carboxamide]
Second: CC(=O)OCc1cccc(-c2ccc(-n3cc(NC(N)=O)c(C(N)=O)n3)cc2)c1 [Example 165, 4′-{3-(aminocarbonyl)-4-[(aminocarbonyl)amino]-1H-pyrazol-1-yl}-1,1′-biphenyl-3-yl)methyl acetate]
The IC50 of the first is 17-fold lower: 0.351 µM for the first, 5.99 µM for the second. The first is the more potent here.

Compared with `NC(=O)Nc1nn(-c2ccc(-c3cc(Cl)ccc3Cl)cc2)cc1C(N)=O` [Example 135], `NC(=O)Nc1nn(-c2ccc(-c3ccc(C4CCCCC4)cc3)cc2)cc1C(N)=O` [Example 140] is higher in IC50: 1.66 µM for the first, greater than 20 µM for the second.

First: NC(=O)Nc1cn(-c2ccc(S(=O)(=O)C3CCCC3)cc2)nc1C(N)=O [Example 287, 1-(3-carbamoyl-1-(4-(cyclopentylsulfonyl)phenyl)-1H-pyrazol-4-yl)urea]
Second: NC(=O)Nc1cn(-c2ccc([S+]([O-])C3CCCCC3)cc2)nc1C(N)=O (stereo not drawn) [Example 191, 1-(3-carbamoyl-1-(4-(cyclohexylsulfinyl)phenyl)-1H-pyrazol-4-yl)urea]
The IC50 of the first is 14-fold lower: 0.187 µM for the first, 2.54 µM for the second. The first is the more potent here.

First: CCOc1cc(-n2cc(NC(N)=O)c(C(N)=O)n2)ccc1-c1cccc(OCC#N)c1 [Example 231, 4-[(aminocarbonyl)amino]-1-[3′-(cyanomethoxy)-2-ethoxy-1,1′-biphenyl-4-yl]-1H-pyrazole-3-carboxamide]
Second: NC(=O)Nc1cn(-c2ccc(-c3ccccc3O)c(F)c2)nc1C(N)=O [Example 261, 4-[(aminocarbonyl)amino]-1-(2-fluoro-2′-hydroxy-1,1′-biphenyl-4-yl)-1H-pyrazole-3-carboxamide]
The IC50 of the first is 4.1-fold higher: 4.88 µM for the first, 1.18 µM for the second.

First: CC(=O)c1cccc(-c2cccc(-n3cc(NC(N)=O)c(C(N)=O)n3)c2)c1 [Example 351, 1-(3′-acetyl-1,1′-biphenyl-3-yl)-4-[(aminocarbonyl)amino]-1H-pyrazole-3-carboxamide]
Second: NC(=O)Nc1cn(-c2cccc(-c3ccccc3-c3ccccc3)c2)nc1C(N)=O [Example 371, 4-[(aminocarbonyl)amino]-1-(1,1′:2′,1″-terphenyl-3-yl)-1H-pyrazole-3-carboxamide]
The IC50 of the first is higher: greater than 20 µM for the first, 1.09 µM for the second. The second is the more potent here.

Going from `NC(=O)Nc1cn(-c2ccc(-c3ccc(C(=O)NCc4ccccc4)cc3)cc2)nc1C(N)=O` [Example 35, 4-[(aminocarbonyl)amino]-1-{4′-[(benzylamino)carbonyl]-1,1′-biphenyl-4-yl}-1H-pyrazole-3-carboxamide] to `CCCNC(=O)c1ccc(-c2ccc(-n3cc(NC(N)=O)c(C(N)=O)n3)cc2)cc1` [Example 146, 4-[(aminocarbonyl)amino]-1-{4′-[(propylamino)carbonyl]-1,1′-biphenyl-4-yl}-1H-pyrazole-3-carboxamide], the IC50 rises from 1.33 µM to 6.28 µM (4.7-fold). The first is the more potent here.

Going from `NC(=O)Nc1cn(-c2cccc(-c3ccc(C4CCCCC4)cc3)c2)nc1C(N)=O` [Example 375, 4-[(aminocarbonyl)amino]-1-(4′-cyclohexyl-1,1′-biphenyl-3-yl)-1H-pyrazole-3-carboxamide] to `NC(=O)Nc1cn(-c2cccc(/C=C/c3ccccc3)c2)nc1C(N)=O` [Example 67, 4-[(aminocarbonyl)amino]-1-{3-[(E)-2-phenylvinyl]phenyl}-1H-pyrazole-3-carboxamide], the IC50 falls from greater than 20 µM to 5.24 µM.

First: NC(=O)Nc1cn(-c2ccc(Sc3ccc(Cl)cc3)cc2)nc1C(N)=O [Example 290, 1-(1-(4-(4-chlorophenylthio)phenyl)-3-carbamoyl-1H-pyrazol-4-yl)urea]
Second: COc1ccccc1CNC(=O)c1ccc(-c2ccc(-n3cc(NC(N)=O)c(C(N)=O)n3)cc2)cc1F [Example 154, 4-[(aminocarbonyl)amino]-1-(3′-fluoro-4′-{[(2-methoxybenzyl)amino]carbonyl}-1,1′-biphenyl-4-yl)-1H-pyrazole-3-carboxamide]
The IC50 of the first is 18-fold higher: 4.56 µM for the first, 0.26 µM for the second. The second is the more potent here.
